{"source": "paper PMC7126465", "about": "(Bioorganic & Medicinal Chemistry, 2017)", "key": {"[1]": {"system": "HSV-2 (G)", "details": "read-out: EC50 (HEL) HSV-2 (G); HEL cells; ref Krecmerova et al. (Ref. [7]); cited from earlier work"}, "[2]": {"system": "human embryonic lung (HEL) cells", "details": "read-out: Cytotoxicity CC50, ref Krecmerova et al. (Ref. [7]); cited from earlier work"}, "[3]": {"system": "VZV TK+ (Oka)", "details": "read-out: EC50 (HEL) VZV TK+ (Oka); HEL cells; ref Krecmerova et al. (Ref. [7]); cited from earlier work"}, "[4]": {"system": "herpesviruses (HSV, VZV, HCMV)", "experiment": "Anti-herpesvirus activity overall", "assay_type": "cell-based", "details": "HEL cells"}, "[5]": {"system": "VZV TK− (07-1)", "details": "read-out: EC50 (HEL) VZV TK− (07-1); HEL cells; ref Krecmerova et al. (Ref. [7]); cited from earlier work"}, "[6]": {"system": "HCMV (Davis)", "details": "read-out: EC50 (HEL) HCMV (Davis); HEL cells; ref Krecmerova et al. (Ref. [7]); cited from earlier work"}, "[7]": {"system": "Vaccinia virus", "details": "read-out: EC50 (HEL) Vaccinia virus; HEL cells; ref Krecmerova et al. (Ref. [7]); cited from earlier work"}, "[8]": {"system": "HCMV (AD-169)", "details": "read-out: EC50 (HEL) HCMV (AD-169); HEL cells; ref Krecmerova et al. (Ref. [7]); cited from earlier work"}, "[9]": {"system": "human embryonic lung (HEL) cells", "details": "ref Krecmerova et al. (Ref. [7]); cited from earlier work"}, "[10]": {"system": "HSV-1 (Kos)", "details": "read-out: EC50 (HEL) HSV-1 (Kos); HEL cells; ref Krecmerova et al. (Ref. [7]); cited from earlier work"}}}
{"smiles": "Nc1ncn(CCOCP(=O)(O)O)c(=O)n1", "note": "[Compound 6, 1-[2-(phosphonomethoxy)ethyl]-5-azacytosine]", "values": [{"measurement": "EC50", "setting": "[1]", "result": 103, "unit": "µM"}, {"measurement": "CC50", "setting": "[2]", "result": "> 200", "unit": "µM"}, {"measurement": "EC50", "setting": "[3]", "result": 100, "unit": "µM"}, {"measurement": "Anti-herpesvirus activity (in words)", "setting": "[4]", "result": "marginal anti-herpesvirus activity"}, {"measurement": "EC50", "setting": "[5]", "result": 40, "unit": "µM"}, {"measurement": "EC50", "setting": "[6]", "result": 147, "unit": "µM"}, {"measurement": "EC50", "setting": "[7]", "result": "> 398", "unit": "µM"}, {"measurement": "EC50", "setting": "[8]", "result": 195, "unit": "µM"}, {"measurement": "Cytotoxicity MCC", "setting": "[9]", "result": ">398", "unit": "µM"}, {"measurement": "EC50", "setting": "[10]", "result": 39, "unit": "µM"}]}
